Reference: US20110053833A1, “SYNTHETIC PEPTIDES AND THEIR USE” (priority 2007, published 2011)

Legend:
Format in all cases: cell-based
C. albicans = experiment: Microbicidal activity, peptides incubated with C. albicans for 2 h in BP; conditions: 2 h incubation in BP; two fold dilution steps starting at 200 μg/ml
Experimental: (§1) The peptides were incubated with E. coli, S. aureus or C. albicans for 2 h in BP. The peptides were diluted in two fold steps starting at 100 μg/ml or 200 μg/ml (C. albicans).

E. coli = experiment: Microbicidal activity, peptides incubated with E. coli for 2 h in BP; conditions: 2 h incubation in BP; two fold dilution steps starting at 100 μg/ml
Experimental: as §1

S. aureus = experiment: Microbicidal activity, peptides incubated with S. aureus for 2 h in BP; conditions: 2 h incubation in BP; two fold dilution steps starting at 100 μg/ml
Experimental: as §1

[1] = tested on: E. coli, S. aureus or C. albicans; experiment: Microbicidal activity, overall comparison with native hLF-derived peptide; conditions: versus HLBD1
Experimental: as §1

Row | Substance | MMC99% C. albicans (C. albicans) | MMC99% E. coli (E. coli) | MMC99% S. aureus (S. aureus) | microbicidal activity compared with the corresponding peptide derived from the sequence of native hLF [1]
1 | EATKCFQWQRNMRKVRGPPVSCIKR (EATKCFQWQRNMRKVRGPPVSCIKR; a fragment of human lactoferrin corresponding to aa 16-40 wherein two aa has been substituted) [HLBD1, reference compound] | 200 µg/mL | 50 µg/mL | 50 µg/mL | 
2 | EATKCFQWKRNMRKVRGPPVSCIKR (EATKCFQWKRNMRKVRGPPVSCIKR; a fragment of human lactoferrin corresponding to aa 16-40 wherein one aa has been substituted) [HLBD1Q24K, synthetic peptide according to the present invention] | 50 µg/mL | 12 µg/mL | 25 µg/mL | considerably higher
